Laboratory results published in patent US20250243171A1, “QUINAZOLINE COMPOUNDS FOR TREATMENT OF DISEASE” (Arthrosi Therapeutics, Inc., priority 2021, published 2025).

Columns and labels:
Assay in all cases: EC50 assay: Ba/F3 stable cell proliferation (CCK-8, 72 h)
Format in all cases: cell-based
Ba/F3 stable cells [1] = molecular target: T1, Ba/F3 stable cells (Homo sapiens, UniProt P00533, INS763FQEA, cells depend on it); conditions: Ba/F3-EGFR A763-Y764insFQEA cells
T1 construct: EC50 Ba/F3-EGFR A763-Y764insFQEA; other: Ba/F3-EGFR A763-Y764insFQEA cells, 72 h, CCK-8
T1 sequence (P00533 with tags, fused parts or gaps INS763FQEA): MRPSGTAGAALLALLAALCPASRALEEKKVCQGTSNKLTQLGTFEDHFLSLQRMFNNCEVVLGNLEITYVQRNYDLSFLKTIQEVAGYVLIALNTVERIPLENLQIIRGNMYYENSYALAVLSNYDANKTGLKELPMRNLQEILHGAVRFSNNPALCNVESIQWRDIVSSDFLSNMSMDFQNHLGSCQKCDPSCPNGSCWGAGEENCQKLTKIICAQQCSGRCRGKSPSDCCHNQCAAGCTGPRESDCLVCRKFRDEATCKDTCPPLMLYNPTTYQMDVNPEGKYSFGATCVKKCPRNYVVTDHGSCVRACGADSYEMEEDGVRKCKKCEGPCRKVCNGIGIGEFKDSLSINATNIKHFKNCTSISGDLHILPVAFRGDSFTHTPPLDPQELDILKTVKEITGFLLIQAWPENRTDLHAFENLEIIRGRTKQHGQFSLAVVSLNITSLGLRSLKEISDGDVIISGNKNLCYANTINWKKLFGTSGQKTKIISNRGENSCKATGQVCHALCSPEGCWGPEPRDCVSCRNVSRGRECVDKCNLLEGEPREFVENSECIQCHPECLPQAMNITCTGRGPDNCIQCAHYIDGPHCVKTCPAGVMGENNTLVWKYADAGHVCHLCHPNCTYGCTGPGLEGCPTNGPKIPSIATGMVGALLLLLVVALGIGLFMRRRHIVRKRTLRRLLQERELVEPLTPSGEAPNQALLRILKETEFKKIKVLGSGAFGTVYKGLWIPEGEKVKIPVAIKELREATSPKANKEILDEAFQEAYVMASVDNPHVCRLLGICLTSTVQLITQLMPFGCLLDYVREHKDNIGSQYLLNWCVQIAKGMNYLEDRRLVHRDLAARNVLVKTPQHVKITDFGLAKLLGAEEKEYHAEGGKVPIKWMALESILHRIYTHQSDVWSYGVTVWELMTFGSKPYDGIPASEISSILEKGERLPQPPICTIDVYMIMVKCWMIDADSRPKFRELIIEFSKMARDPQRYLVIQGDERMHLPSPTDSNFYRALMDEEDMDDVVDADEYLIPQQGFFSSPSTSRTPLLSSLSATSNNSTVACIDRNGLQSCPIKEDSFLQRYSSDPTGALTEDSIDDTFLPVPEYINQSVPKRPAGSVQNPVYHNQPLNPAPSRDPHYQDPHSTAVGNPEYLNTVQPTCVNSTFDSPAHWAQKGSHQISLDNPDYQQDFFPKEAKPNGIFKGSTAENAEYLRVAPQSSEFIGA
How it was run: (§1)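 Ba/F3 stable cells were seeded at 4,000 cells/90 μL/well in 96-well plates and held 2 h at 37° C. in 5% CO2, then given 10 μL of serially titrated compound (0.1% DMSO final). After 72 h at 37° C., CCK-8 reagent was added for 4 hours and absorbance read at 450 nm to derive EC50.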

Ba/F3 stable cells [2] = molecular target: T2, Ba/F3 stable cells (Homo sapiens, UniProt P00533, T790M/L858R, cells depend on it); conditions: Ba/F3-EGFR L858R-T790M cells
T2 construct: EC50 Ba/F3-EGFR L858R-T790M; other: Ba/F3-EGFR L858R-T790M cells, 72 h, CCK-8
T2 sequence (P00533 whole entry T790M/L858R): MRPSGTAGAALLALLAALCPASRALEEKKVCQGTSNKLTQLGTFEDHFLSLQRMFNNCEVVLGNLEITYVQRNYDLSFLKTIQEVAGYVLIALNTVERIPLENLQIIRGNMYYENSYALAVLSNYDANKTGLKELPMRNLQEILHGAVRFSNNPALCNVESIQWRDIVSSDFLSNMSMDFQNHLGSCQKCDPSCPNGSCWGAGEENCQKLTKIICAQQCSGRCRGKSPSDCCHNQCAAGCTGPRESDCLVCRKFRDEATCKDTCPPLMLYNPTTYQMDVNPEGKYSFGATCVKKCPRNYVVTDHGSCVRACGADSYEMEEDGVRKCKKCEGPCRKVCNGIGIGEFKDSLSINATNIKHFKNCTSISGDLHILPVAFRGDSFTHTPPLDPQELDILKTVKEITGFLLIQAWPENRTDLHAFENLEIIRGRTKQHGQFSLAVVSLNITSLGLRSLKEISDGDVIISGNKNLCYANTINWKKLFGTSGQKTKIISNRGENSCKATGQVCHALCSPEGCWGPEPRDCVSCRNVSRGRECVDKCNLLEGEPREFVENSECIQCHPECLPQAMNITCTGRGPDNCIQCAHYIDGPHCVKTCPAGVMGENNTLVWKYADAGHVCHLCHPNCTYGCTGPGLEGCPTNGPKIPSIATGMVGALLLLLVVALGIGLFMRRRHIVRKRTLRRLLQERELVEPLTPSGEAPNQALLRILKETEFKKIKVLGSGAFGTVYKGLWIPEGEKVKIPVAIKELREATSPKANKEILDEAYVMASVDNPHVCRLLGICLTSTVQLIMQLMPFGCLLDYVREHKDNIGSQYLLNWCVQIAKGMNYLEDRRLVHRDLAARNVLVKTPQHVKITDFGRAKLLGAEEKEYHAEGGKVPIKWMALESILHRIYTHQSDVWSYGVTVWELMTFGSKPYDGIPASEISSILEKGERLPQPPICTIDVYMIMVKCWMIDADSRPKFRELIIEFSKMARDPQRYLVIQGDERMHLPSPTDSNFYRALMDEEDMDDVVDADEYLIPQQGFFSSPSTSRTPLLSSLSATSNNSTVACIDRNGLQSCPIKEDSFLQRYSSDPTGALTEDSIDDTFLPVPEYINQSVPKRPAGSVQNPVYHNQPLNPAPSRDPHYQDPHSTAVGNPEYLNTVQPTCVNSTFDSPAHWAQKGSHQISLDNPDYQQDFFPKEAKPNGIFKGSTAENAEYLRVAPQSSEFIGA
How it was run: as §1

Ba/F3 stable cells [3] = molecular target: T3, Ba/F3 stable cells (Homo sapiens, UniProt P00533, DUP771-773, cells depend on it); conditions: Ba/F3-EGFR H773-V774insNPH cells
T3 construct: EC50 Ba/F3-EGFR H773-V774insNPH; other: Ba/F3-EGFR H773-V774insNPH cells, 72 h, CCK-8
How it was run: as §1

Ba/F3 stable cells [4] = molecular target: T4, Ba/F3 stable cells (Homo sapiens, UniProt P00533, DUP768-770, cells depend on it); conditions: Ba/F3-EGFR D770-N771insSVD cells
T4 construct: EC50 Ba/F3-EGFR D770-N771insSVD; other: Ba/F3-EGFR D770-N771insSVD cells, 72 h, CCK-8
How it was run: as §1

Ba/F3 stable cells [5] = molecular target: T5, Ba/F3 stable cells (Homo sapiens, UniProt P04626, DUP772-775, cells depend on it); conditions: Ba/F3-HER2 A775-G776insYVMA cells
T5 construct: EC50 Ba/F3-HER2 A775-G776insYVMA; other: Ba/F3-HER2 A775-G776insYVMA cells, 72 h, CCK-8
T5 sequence (P04626 with tags, fused parts or gaps DUP772-775): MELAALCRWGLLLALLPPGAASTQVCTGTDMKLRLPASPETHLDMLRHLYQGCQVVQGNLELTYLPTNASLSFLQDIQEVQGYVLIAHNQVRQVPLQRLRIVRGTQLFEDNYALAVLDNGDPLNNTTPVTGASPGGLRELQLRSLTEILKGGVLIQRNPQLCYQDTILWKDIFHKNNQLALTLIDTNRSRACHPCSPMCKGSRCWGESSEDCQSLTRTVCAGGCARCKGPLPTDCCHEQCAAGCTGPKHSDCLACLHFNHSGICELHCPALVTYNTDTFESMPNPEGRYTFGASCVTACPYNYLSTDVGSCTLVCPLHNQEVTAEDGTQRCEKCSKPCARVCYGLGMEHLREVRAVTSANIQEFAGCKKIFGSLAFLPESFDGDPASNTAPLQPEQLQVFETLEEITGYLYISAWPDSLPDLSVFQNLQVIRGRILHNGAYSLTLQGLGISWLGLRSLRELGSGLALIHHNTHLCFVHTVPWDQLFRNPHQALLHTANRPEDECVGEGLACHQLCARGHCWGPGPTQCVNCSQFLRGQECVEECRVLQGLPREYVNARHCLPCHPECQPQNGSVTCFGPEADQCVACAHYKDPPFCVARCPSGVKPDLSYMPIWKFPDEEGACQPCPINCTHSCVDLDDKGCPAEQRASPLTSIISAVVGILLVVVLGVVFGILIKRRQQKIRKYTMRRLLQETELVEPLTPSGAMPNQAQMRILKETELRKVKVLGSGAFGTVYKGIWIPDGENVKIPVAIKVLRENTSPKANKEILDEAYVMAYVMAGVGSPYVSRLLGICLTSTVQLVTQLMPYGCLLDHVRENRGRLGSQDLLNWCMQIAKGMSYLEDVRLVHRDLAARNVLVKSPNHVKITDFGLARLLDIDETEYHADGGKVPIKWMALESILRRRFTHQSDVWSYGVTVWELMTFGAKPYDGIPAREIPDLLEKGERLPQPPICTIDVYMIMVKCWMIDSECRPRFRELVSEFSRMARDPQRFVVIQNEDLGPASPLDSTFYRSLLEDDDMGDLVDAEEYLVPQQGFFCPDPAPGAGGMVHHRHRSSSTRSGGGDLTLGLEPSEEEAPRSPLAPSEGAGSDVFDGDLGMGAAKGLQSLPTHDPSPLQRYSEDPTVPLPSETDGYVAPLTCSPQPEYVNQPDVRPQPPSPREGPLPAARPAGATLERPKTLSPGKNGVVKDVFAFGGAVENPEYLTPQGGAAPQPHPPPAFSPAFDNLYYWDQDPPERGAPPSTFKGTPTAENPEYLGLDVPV
How it was run: as §1

Ba/F3 stable cells [6] = molecular target: T6, Ba/F3 stable cells (Homo sapiens, UniProt P00533, DUP767-769, cells depend on it); conditions: Ba/F3-EGFR V769-D770insASV cells
T6 construct: EC50 Ba/F3-EGFR V769-D770insASV; other: Ba/F3-EGFR V769-D770insASV cells, 72 h, CCK-8
T6 sequence (P00533 with tags, fused parts or gaps DUP767-769): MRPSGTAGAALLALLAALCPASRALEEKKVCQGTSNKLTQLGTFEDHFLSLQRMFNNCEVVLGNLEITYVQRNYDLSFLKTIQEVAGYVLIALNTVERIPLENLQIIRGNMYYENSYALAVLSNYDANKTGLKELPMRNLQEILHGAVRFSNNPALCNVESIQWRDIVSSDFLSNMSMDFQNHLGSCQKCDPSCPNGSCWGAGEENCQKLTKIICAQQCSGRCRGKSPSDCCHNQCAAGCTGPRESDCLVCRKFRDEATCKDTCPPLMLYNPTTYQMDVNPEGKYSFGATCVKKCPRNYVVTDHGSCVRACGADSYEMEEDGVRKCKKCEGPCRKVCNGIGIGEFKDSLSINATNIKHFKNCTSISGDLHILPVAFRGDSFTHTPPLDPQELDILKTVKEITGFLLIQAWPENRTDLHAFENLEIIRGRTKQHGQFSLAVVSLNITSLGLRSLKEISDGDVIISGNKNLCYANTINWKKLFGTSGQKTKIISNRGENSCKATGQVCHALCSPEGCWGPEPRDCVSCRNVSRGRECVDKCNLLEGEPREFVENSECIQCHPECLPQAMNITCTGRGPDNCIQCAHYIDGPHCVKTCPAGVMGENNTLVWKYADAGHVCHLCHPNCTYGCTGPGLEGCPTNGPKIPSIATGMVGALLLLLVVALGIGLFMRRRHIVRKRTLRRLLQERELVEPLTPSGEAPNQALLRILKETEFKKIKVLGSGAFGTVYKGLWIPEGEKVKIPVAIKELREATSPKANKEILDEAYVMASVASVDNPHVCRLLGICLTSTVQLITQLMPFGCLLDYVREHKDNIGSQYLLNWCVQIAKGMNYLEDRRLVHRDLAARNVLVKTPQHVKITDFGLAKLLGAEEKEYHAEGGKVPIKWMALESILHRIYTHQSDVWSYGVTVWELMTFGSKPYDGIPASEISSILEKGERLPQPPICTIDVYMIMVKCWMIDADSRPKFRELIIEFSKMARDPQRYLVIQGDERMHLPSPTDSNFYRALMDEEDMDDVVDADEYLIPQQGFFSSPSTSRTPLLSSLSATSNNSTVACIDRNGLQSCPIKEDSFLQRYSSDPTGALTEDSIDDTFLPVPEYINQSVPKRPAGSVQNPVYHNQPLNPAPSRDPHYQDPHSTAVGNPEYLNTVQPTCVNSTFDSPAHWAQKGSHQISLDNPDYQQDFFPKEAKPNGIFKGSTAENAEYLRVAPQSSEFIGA
How it was run: as §1

Row | Compound | EC50 (Ba/F3 stable cells [1]) | EC50 (Ba/F3 stable cells [2]) | EC50 (Ba/F3 stable cells [3]) | EC50 (Ba/F3 stable cells [4]) | EC50 (Ba/F3 stable cells [5]) | EC50 (Ba/F3 stable cells [6])
1 | C=CC(=O)N[C@H]1C[C@@H](Oc2cc3c(Nc4ccc(Cl)c(Cl)c4F)ncnc3cc2OC2COC2)C1 [Compound 104, N-((1s,3s)-3-((4-((3,4-dichloro-2-fluorophenyl)amino)-7-(oxetan-3-yloxy)quinazolin-6-yl)oxy)cyclobutyl)acrylamide] | ≤ 200 nM | 200 to 1000 nM | ≤ 200 nM | 200 to 1000 nM | 200 to 1000 nM | ≤ 200 nM
2 | C=CC(=O)N[C@H]1C[C@@H](Oc2cc3c(Nc4ccc(Cl)c(Cl)c4F)ncnc3cc2OCC)C1 [Compound 105, N-((1s,3s)-3-((4-((3,4-dichloro-2-fluorophenyl)amino)-7-ethoxyquinazolin-6-yl)oxy)cyclobutyl)acrylamide] | ≤ 200 nM | ≤ 200 nM | ≤ 200 nM | ≤ 200 nM | ≤ 200 nM | ≤ 200 nM
3 | C=CC(=O)N1CCC(Oc2cc3c(NCc4cccc(Cl)c4)ncnc3cc2OC)CC1 [Compound 106, 1-(4-((4-((3-chlorobenzyl)amino)-7-methoxyquinazolin-6-yl)oxy)piperidin-1-yl)prop-2-en-1-one] | ≤ 200 nM | 200 to 1000 nM | ≤ 200 nM | ≤ 200 nM | ≤ 200 nM | ≤ 200 nM
4 | C=CC(=O)N1CCC(Oc2cc3c(OCc4cccc(Cl)c4)ncnc3cc2OC)CC1 [Compound 107, 1-(4-((4-((3-chlorobenzyl)oxy)-7-methoxyquinazolin-6-yl)oxy)piperidin-1-yl)prop-2-en-1-one] | ≤ 200 nM | 200 to 1000 nM | 200 to 1000 nM | 200 to 1000 nM | > 1000 nM | 200 to 1000 nM
5 | C=CC(=O)N1CCC(Oc2cc3c(NCc4ccc(Cl)cc4)ncnc3cc2OC)CC1 [Compound 108, 1-(4-((4-((4-chlorobenzyl)amino)-7-methoxyquinazolin-6-yl)oxy)piperidin-1-yl)prop-2-en-1-one] | ≤ 200 nM | > 1000 nM | 200 to 1000 nM | > 1000 nM | > 1000 nM | > 1000 nM
6 | C=CC(=O)N1CCC(Oc2cc3c(NCc4ccc(Cl)cc4Cl)ncnc3cc2OC)CC1 [Compound 109, 1-(4-((4-((2,4-dichlorobenzyl)amino)-7-methoxyquinazolin-6-yl)oxy)piperidin-1-yl)prop-2-en-1-one] | 200 to 1000 nM | > 1000 nM | > 1000 nM | > 1000 nM | > 1000 nM | > 1000 nM
7 | C=CC(=O)N1CCC(Oc2cc3c(NCc4ccccc4Cl)ncnc3cc2OC)CC1 [Compound 110, 1-(4-((4-((2-chlorobenzyl)amino)-7-methoxyquinazolin-6-yl)oxy)piperidin-1-yl)prop-2-en-1-one] | ≤ 200 nM | 200 to 1000 nM | ≤ 200 nM | 200 to 1000 nM | ≤ 200 nM | ≤ 200 nM
8 | C=CC(=O)N1CCC(Oc2cc3c(NCc4cccc(F)c4)ncnc3cc2OC)CC1 [Compound 111, 1-(4-((4-((3-fluorobenzyl)amino)-7-methoxyquinazolin-6-yl)oxy)piperidin-1-yl)prop-2-en-1-one] | ≤ 200 nM | 200 to 1000 nM | ≤ 200 nM | 200 to 1000 nM | ≤ 200 nM | ≤ 200 nM
9 | C=CC(=O)N1CCC(Oc2cc3c(NCc4ccccc4F)ncnc3cc2OC)CC1 [Compound 112, 1-(4-((4-((2-fluorobenzyl)amino)-7-methoxyquinazolin-6-yl)oxy)piperidin-1-yl)prop-2-en-1-one] | ≤ 200 nM | 200 to 1000 nM | 200 to 1000 nM | > 1000 nM | ≤ 200 nM | 200 to 1000 nM
10 | C=CC(=O)N1CCC(Oc2cc3c(NCc4ccc(Cl)c(F)c4)ncnc3cc2OC)CC1 [Compound 113, 1-(4-((4-((4-chloro-3-fluorobenzyl)amino)-7-methoxyquinazolin-6-yl)oxy)piperidin-1-yl)prop-2-en-1-one] | ≤ 200 nM | > 1000 nM | 200 to 1000 nM | > 1000 nM | ≤ 200 nM | 200 to 1000 nM
11 | C=CC(=O)N1CCC(Oc2cc3c(NCc4ccc(F)c(Cl)c4)ncnc3cc2OC)CC1 [Compound 114, 1-(4-((4-((3-chloro-4-fluorobenzyl)amino)-7-methoxyquinazolin-6-yl)oxy)piperidin-1-yl)prop-2-en-1-one] | ≤ 200 nM | ≤ 200 nM | 200 to 1000 nM | 200 to 1000 nM | ≤ 200 nM | 200 to 1000 nM
12 | C=CC(=O)N1CCC(Oc2cc3c(NCc4ccc(Cl)c(Cl)c4)ncnc3cc2OC)CC1 [Compound 115, 1-(4-((4-((3,4-dichlorobenzyl)amino)-7-methoxyquinazolin-6-yl)oxy)piperidin-1-yl)prop-2-en-1-one] | ≤ 200 nM | 200 to 1000 nM | > 1000 nM | > 1000 nM | ≤ 200 nM | > 1000 nM
13 | C=CC(=O)N1CCC(Oc2cc3c(NCc4cccc(Cl)c4F)ncnc3cc2OC)CC1 [Compound 116, 1-(4-((4-((3-chloro-2-fluorobenzyl)amino)-7-methoxyquinazolin-6-yl)oxy)piperidin-1-yl)prop-2-en-1-one] | ≤ 200 nM | 200 to 1000 nM | ≤ 200 nM | 200 to 1000 nM | ≤ 200 nM | ≤ 200 nM
14 | C=CC(=O)N1CCC(Oc2cc3c(NCc4cc(Cl)cc(Cl)c4)ncnc3cc2OC)CC1 [Compound 117, 1-(4-((4-((3,5-dichlorobenzyl)amino)-7-methoxyquinazolin-6-yl)oxy)piperidin-1-yl)prop-2-en-1-one] | 200 to 1000 nM | 200 to 1000 nM | > 1000 nM | > 1000 nM | > 1000 nM | > 1000 nM
15 | C=CC(=O)N1CCC(Oc2cc3c(NCc4cc(Cl)ccc4F)ncnc3cc2OC)CC1 [Compound 118, 1-(4-((4-((5-chloro-2-fluorobenzyl)amino)-7-methoxyquinazolin-6-yl)oxy)piperidin-1-yl)prop-2-en-1-one] | ≤ 200 nM | > 1000 nM | > 1000 nM | > 1000 nM | 200 to 1000 nM | > 1000 nM
16 | C=CC(=O)N1CCC(Oc2cc3c(NCc4cc(Cl)ccc4Cl)ncnc3cc2OC)CC1 [Compound 119, 1-(4-((4-((2,5-dichlorobenzyl)amino)-7-methoxyquinazolin-6-yl)oxy)piperidin-1-yl)prop-2-en-1-one] | ≤ 200 nM | > 1000 nM | > 1000 nM | > 1000 nM | > 1000 nM | > 1000 nM
17 | C=CC(=O)N1CCC(Oc2cc3c(NCc4cccc(Br)c4)ncnc3cc2OC)CC1 [Compound 120, 1-(4-((4-((3-bromobenzyl)amino)-7-methoxyquinazolin-6-yl)oxy)piperidin-1-yl)prop-2-en-1-one] | ≤ 200 nM | 200 to 1000 nM | ≤ 200 nM | ≤ 200 nM | 200 to 1000 nM | ≤ 200 nM
18 | C=CC(=O)N1CCC(Oc2cc3c(NCc4cccc(C)c4)ncnc3cc2OC)CC1 [Compound 121, 1-(4-((7-methoxy-4-((3-methylbenzyl)amino)quinazolin-6-yl)oxy)piperidin-1-yl)prop-2-en-1-one] | ≤ 200 nM | 200 to 1000 nM | 200 to 1000 nM | 200 to 1000 nM | 200 to 1000 nM | 200 to 1000 nM
